Results as given in patent publication US20100041597A1, “PEPTIDES TARGETED TO PROTEIN KINASE C ISOFORMS AND USES THEREOF” (priority 2005, published 2010).
Where no end group is shown, it is not given here.

What was measured:
[1] = system: LS180 colon cancer tumours; assay: LS180 colon cancer tumours in mice, combination with doxorubicin; assay type: in vivo; settings: mice treated with only doxorubicin (and control cohorts)
Text: Both in vitro and in vivo data support the efficacy of PhGα1 in limiting the effect of multi-drug resistance (MDR) in colorectal drug-resistant tumours when used in combination treatment with chemotherapy. Specifically, studies have shown that establishment of LS180 colon cancer tumours in mice (M1 stage) treated with PhGα1 in combination with an anthracycline chemotherapeutic, doxorubicin, was delayed approximately 100% (p<0.03) versus control cohorts and mice treated with only doxorubicin (28 days compared to 14 days). Results were also observed for tumour transition from the M1 to M2 stage.

PKC-β [2] = assay: In vitro competition with anti-PKC-β antibody, Protocol B, IMR-32 cells; assay type: binding, human
Procedure: (§1) The ability of the peptides PRE 2 and PRE 3 (see Table 3) to interfere with the binding of a PKC-α-specific polyclonal antibody (Santa Cruz Biotechnology, Inc.) to PKC-α was determined using a modified version of the protocol outlined above in which the test peptide was added directly to the cell extract prior to electrophoresis at a concentration of either 5× or 15× the concentration of the protein applied to each well of the gel for the Western blots (20 μg).
Peptides PRE 2 and PRE 3 (see Table 3) were tested for their ability to interfere with the binding of a PKC-β-specific polyclonal antibody (Santa Cruz Biotechnology, Inc.) to PKC-β using the general protocol described in Example 3.

PKC-α [3] = biological target: T1, PKC-α (Homo sapiens, UniProt P17252); assay: In vitro competition with anti-PKC-α antibody on blotted cell lysate, Protocol A, IMR-32 cells; assay type: binding; parameters: subcellular localisation of endogenous PKC-α in IMR-32 cells; endogenous in cells; host or cells: IMR-32; settings: Protocol A; for Band Intensity / Inhibition (%) / Relative Intensity (%): IMR-32, Table 4
Procedure: The ability of the peptides to interfere with the binding of a PKC-α-specific monoclonal antibody to PKC-α was determined using the following protocol.
Cell lysates from either IMR-32 (human neuroblastoma) cells or C6Cx43 cells (rat glioma transfected cells overexpressing connexin 43) were obtained using standard protocols and the proteins of the lysate were separated by SDS PAGE electrophoresis and electrotransferred onto a nitrocellulose membrane. […] A primary polyclonal antibody specific for PKC-α (Santa Cruz Biotechnology, Inc., CA) was then added (15 μg/ml) and the membrane incubated for a further 45 minutes. Finally, the primary antibody was detected with a secondary antibody conjugated to alkaline phosphatase using standard procedures. The intensity of the band corresponding to PKC-α was assessed by scanning and densitometry using the Gel-Pro software (Media Cybernetics) to obtain relative band intensities (average of 3 replicas). Control assays were conducted as described above except that blocking buffer without peptide was used.
The results are expressed as relative band intensity and as a percentage of the intensity of the corresponding band in the control assay (“Relative intensity (%)”). “% inhibition” relates to the percentage of the PKC-α band that is inaccessible to the antibody.

PKC-α [4] = biological target: T1, PKC-α; assay: In vitro competition with anti-PKC-α antibody, Protocol B (peptide added to cell extract before electrophoresis), IMR-32 cells; assay type: binding; parameters: subcellular localisation of endogenous PKC-α in IMR-32 cells; endogenous in cells; host or cells: IMR-32
Procedure: Peptides PRE 3 and PRE 4 (see Table 3) were tested for their ability to interfere with the binding of isoform-specific polyclonal antibodies (Santa Cruz Biotechnology, Inc.) to PKC-α, PKC-βI or PKC-βII using the general protocol described in Example 3.

PKC-β [5] = assay: In vitro competition with anti-PKC-β antibody, Protocol A, IMR-32 cells; assay type: binding, human; settings: for Band Intensity / Inhibition (%) / Relative Intensity (%): PKC-β, IMR-32, Table 6
Procedure: Cell lysates from either IMR-32 (human neuroblastoma) cells or C6Cx43 cells (rat glioma transfected cells overexpressing connexin 43) were obtained using standard protocols and the proteins of the lysate were separated by SDS PAGE electrophoresis and electrotransferred onto a nitrocellulose membrane. The membrane was incubated for 30 minutes in blocking buffer (TBST) containing the test peptide at either 5× or 20× the concentrations of the primary antibody. A primary polyclonal antibody specific for PKC-α (Santa Cruz Biotechnology, Inc., CA) was then added (15 μg/ml) and the membrane incubated for a further 45 minutes. Finally, the primary antibody was detected with a secondary antibody conjugated to alkaline phosphatase using standard procedures. The intensity of the band corresponding to PKC-α was assessed by scanning and densitometry using the Gel-Pro software (Media Cybernetics) to obtain relative band intensities (average of 3 replicas). Control assays were conducted as described above except that blocking buffer without peptide was used.
Peptides PRE 1, PRE 2 and PRE 3 (see Table 3) were tested for their ability to interfere with the binding of a PKC-β-specific polyclonal antibody (Santa Cruz Biotechnology, Inc.) to PKC-β using the general protocol described in Example 1. […] It is worth noting in this regard that PKC-α and PKC-β belong to the same sub-group of PKCs (cPKCs).

PKC-ε = assay: In vitro competition with anti-PKC-ε antibody, Protocol B, IMR-32 cells; assay type: binding, human
Procedure: as §1
Peptides PRE 2, PRE 3 and PRE 4 (see Table 3) were tested for their ability to interfere with the binding of isoform-specific polyclonal antibodies (Santa Cruz Biotechnology, Inc.) to PKC-ε using the general protocol described in Example 3. Two bands, representing alternate splicing variants of PKC-ε, were identified on the Western blot using this anti-PKC-ε antibody.

Q: `COc1cccc2c1C(=O)c1c(O)c3c(c(O)c1C2=O)C[C@@](O)(C(=O)CO)C[C@@H]3O[C@H]1C[C@H](N)[C@H](O)[C@H](C)O1` [doxorubicin] was tested. Which “time to establishment of LS180 tumours (M1 stage)” value [1] did it give?
A: Its value is 14 days.

Q: Which results are given for KDAQNLIGISL-NH2 [PRE 2]?
A: effect on antibody binding to PKC-β (PKC-β [2]): some cross reactivity; Band Intensity (PKC-β [2]; 100 μg, PKC-β, IMR-32, Table 8): 0.0322; Inhibition (%) (PKC-β [2]; 100 μg, PKC-β, IMR-32, Table 8): 54.7%; Relative Intensity (%) (PKC-β [2]; 100 μg, PKC-β, IMR-32, Table 8): 45.3%; Band Intensity (PKC-α [3]; 75 μg peptide): 0.917; Inhibition (%) (PKC-α [3]; 75 μg peptide): 56.1%; Relative Intensity (%) (PKC-α [3]; 75 μg peptide): 43.9%; Band Intensity (PKC-α [3]; 300 μg peptide): 0.192; Inhibition (%) (PKC-α [3]; 300 μg peptide): 90.9%; Relative Intensity (%) (PKC-α [3]; 300 μg peptide): 9.1%; effect on antibody binding to PKC-α (PKC-α [3]): mask the antigenic site of PKC-α; effect on antibody binding to PKC-α (PKC-α [4]): effectively interfered with PKC-α antibody binding to PKC-α; Band Intensity (PKC-α [4]; 100 μg, PKC-α, IMR-32, Table 7): 0.0103; Inhibition (%) (PKC-α [4]; 100 μg, PKC-α, IMR-32, Table 7): 99.9%; Relative Intensity (%) (PKC-α [4]; 100 μg, PKC-α, IMR-32, Table 7): 0.135%; effect on antibody binding to PKC-β (PKC-β [5]): some cross reactivity; Band Intensity (PKC-β [5]; 75 μg): 0.800; Inhibition (%) (PKC-β [5]; 75 μg): 31.0%; Relative Intensity (%) (PKC-β [5]; 75 μg): 69.0%; Band Intensity (PKC-β [5]; 300 μg): 0.403; Inhibition (%) (PKC-β [5]; 300 μg): 65.3%; Relative Intensity (%) (PKC-β [5]; 300 μg): 34.7%; effect on antibody binding to PKC-ε (PKC-ε): some cross-reactivity with PKC-ε
